Test results published in patent publication US20240083844A1, “KINASE INHIBITORS AND USES THEREOF” (ABM Therapeutics Corporation, priority 2020, published 2024).

tested on: not listed separately; experiment: Mouse pharmacokinetics study; assay type: in vivo; details: CD-1 mice, PO 25 mg/kg
Source text: The pharmacokinetic properties of Compounds 5 and 6 was studied in CD-1 mice via intravenous and oral administration by using a standard protocol. The test articles were formulated in 20% Hydroxypropyl-beta-cyclodextrin, either as a clear solution or fine suspension.

| F [%] | Structure (SMILES) |
| --- | --- |
| 62.1 ± 11.4 | CCN1CC(NC(=O)c2c(F)cncc2Nc2ccc(I)cc2F)C1 [Compound 6, N-(1-ethylazetidin-3-yl)-3-fluoro-5-((2-fluoro-4-iodophenyl)amino)isonicotinamide] |
| 93.1 ± 6.0 | C#Cc1ccc(Nc2cncc(F)c2C(=O)NC2CNC2)c(F)c1 [Compound 11, N-(azetidin-3-yl)-3-((4-ethynyl-2-fluorophenyl)amino)-5-fluoroisonicotinamide] |

same assay, conditions: mouse, plasma; CD-1 mice, IV 5 mg/kg

| Vd [L/kg] | Structure (SMILES) |
| --- | --- |
| 4.2 ± 0.33 | CCN1CC(NC(=O)c2c(F)cncc2Nc2ccc(I)cc2F)C1 [Compound 6, N-(1-ethylazetidin-3-yl)-3-fluoro-5-((2-fluoro-4-iodophenyl)amino)isonicotinamide] |
| 67.7 ± 13.9 | C#Cc1ccc(Nc2cncc(F)c2C(=O)NC2CNC2)c(F)c1 [Compound 11, N-(azetidin-3-yl)-3-((4-ethynyl-2-fluorophenyl)amino)-5-fluoroisonicotinamide] |

same assay, conditions: mouse, plasma; CD-1 mice, IV 5 mg/kg, 20% Hydroxypropyl-beta-cyclodextrin

| half-life [min] | Structure (SMILES) |
| --- | --- |
| 37.5 ± 2.58 | CCN1CC(NC(=O)c2c(F)cncc2Nc2ccc(I)cc2F)C1 [Compound 6, N-(1-ethylazetidin-3-yl)-3-fluoro-5-((2-fluoro-4-iodophenyl)amino)isonicotinamide] |
| 542 ± 41.4 | C#Cc1ccc(Nc2cncc(F)c2C(=O)NC2CNC2)c(F)c1 [Compound 11, N-(azetidin-3-yl)-3-((4-ethynyl-2-fluorophenyl)amino)-5-fluoroisonicotinamide] |

same assay, conditions: mouse, plasma; CD-1 mice, IV 5 mg/kg; read-out: Clp

| clearance [mL/min/kg] | Structure (SMILES) |
| --- | --- |
| 77.8 ± 8 | CCN1CC(NC(=O)c2c(F)cncc2Nc2ccc(I)cc2F)C1 [Compound 6, N-(1-ethylazetidin-3-yl)-3-fluoro-5-((2-fluoro-4-iodophenyl)amino)isonicotinamide] |
| 86 ± 12 | C#Cc1ccc(Nc2cncc(F)c2C(=O)NC2CNC2)c(F)c1 [Compound 11, N-(azetidin-3-yl)-3-((4-ethynyl-2-fluorophenyl)amino)-5-fluoroisonicotinamide] |

same assay, conditions: mouse; CD-1 mice, PO 25 mg/kg, plasma

| AUC [ng·h/mL] | Cmax [ng/mL] | Tmax [min] | Structure (SMILES) |
| --- | --- | --- | --- |
| 3160 ± 641 | 1070 ± 328 | 30 | CCN1CC(NC(=O)c2c(F)cncc2Nc2ccc(I)cc2F)C1 [Compound 6, N-(1-ethylazetidin-3-yl)-3-fluoro-5-((2-fluoro-4-iodophenyl)amino)isonicotinamide] |
| 4550 ± 301 | 1700 ± 95 | 40.2 ± 17.4 | C#Cc1ccc(Nc2cncc(F)c2C(=O)NC2CNC2)c(F)c1 [Compound 11, N-(azetidin-3-yl)-3-((4-ethynyl-2-fluorophenyl)amino)-5-fluoroisonicotinamide] |

tested on: HT-29 colon cancer cells; experiment: Antiproliferation assay in HT-29 cells (CellTiter Glo); assay type: cell-based; details: Homo sapiens, 72 hours or 144 hours
Procedure: [The source words this procedure for another cell line and reports this cell line under the same test.] (§1) In vitro anti-proliferation study of test compounds in A375 cell line by CellTiter Glo. The cells were routinely maintained as a monolayer culture in corresponding culture medium, at 37° C. with 5% CO2 in air.
(§2) Exponential growth cells were harvested by trypsin-EDTA digestion. Cell pellet was re-suspended in fresh culture medium, and the concentration adjusted as needed (the cell density per well was listed in following form). The cell viability was over 98% by Trypan blue staining. Cells were incoluated into 96 wells plates according to the plate map (90 μL/well). Plates were incubated at 37° C. and 5% CO2 overnight. The next day, the 10×compound containing medium was prepared according to the plate map. 10 μL of 10×compound containing medium was transferred into each well of the assay plates (the final DMSO concentration was 0.5%). The medium was gently mixed and incubated at 37° C. and 5% CO2 for another 72 hours or 144 hours.
(§3) Reagent was prepared according to the manufacture's instruction. 50 μL CellTiter-Glo Reagent were added in each well. Contents were mixed for 2 minutes on an orbital shaker to induce cell lysis. The plate was incubated at room temperature for 10 minutes to stabilize luminescent signal. 100 μL of reaction contents were transferred of each well from the clear plates into white walled/white opaque 96-well plates. Luminescence was recorded on Envision.
(§4) Using the luminescence measurements [time zero (T0), control growth (C), and test growth in the presence of drug at the six concentration levels (Ti)], the percentage growth was calculated at each of the drug concentrations levels.
(§5) Percentage growth inhibition (GI) was calculated as: GI (%)=[(Ti−T0)/(C-T0)]×100 for concentrations for which Ti>=T0, and GI (%)=[(Ti−T0)/T0]×100 for concentrations for which Ti<T0. Data were analyzed using the XLFit (Excel) tool, fitting to a 4-parameter equation to generate concentration response curves. Concentration of compound that inhibits 50% of control cell growth (GI50) was back-interpolated when y=50% of net growth of DMSO treated control wells using nonlinear regression with the equation: f(x) 205 [fit=(A+((B−A)/(1+((C/x)^D))))], where A is the minimum response (Ymin), B is the maximum response (Ymax), C is the inflection point of the curve (Re GI50) and D is the Hill coefficient. Growth inhibition of 50% (GI50) was calculated at the 50% Growth inhibition on the curve. Index values were the sum of Inhibition rate (IR) at each tested compound concentration.

| GI50 [µM] | Structure (SMILES) |
| --- | --- |
| > 1 | O=C(NC1CNC1)c1c(F)cc(F)cc1Nc1ccc(I)cc1F [Compound 1, N-(azetidin-3-yl)-2,4-difluoro-6-((2-fluoro-4-iodophenyl)amino)benzamide] |
| > 1 | O=C(NC1CNC1)c1c(F)c(F)c(F)c(F)c1Nc1ccc(I)cc1F [Compound 4, N-(azetidin-3-yl)-2,3,4,5-tetrafluoro-6-((2-fluoro-4-iodophenyl)amino)benzamide] |
| < 0.1 | O=C(NC1CNC1)c1c(F)cncc1Nc1ccc(I)cc1F [Compound 5, N-(azetidin-3-yl)-3-fluoro-5-((2-fluoro-4-iodophenyl)amino)isonicotinamide] |
| < 0.1 | CCN1CC(NC(=O)c2c(F)cncc2Nc2ccc(I)cc2F)C1 [Compound 6, N-(1-ethylazetidin-3-yl)-3-fluoro-5-((2-fluoro-4-iodophenyl)amino)isonicotinamide] |
| < 0.1 | O=C(NC1CN(CCF)C1)c1c(F)cncc1Nc1ccc(I)cc1F [Compound 9, 3-fluoro-5-((2-fluoro-4-iodophenyl)amino)-N-(1-(2-fluoroethyl)azetidin-3-yl)isonicotinamide] |
| < 0.1 | C#Cc1ccc(Nc2cncc(F)c2C(=O)NC2CNC2)c(F)c1 [Compound 11, N-(azetidin-3-yl)-3-((4-ethynyl-2-fluorophenyl)amino)-5-fluoroisonicotinamide] |
| 0.1 to 1 | C#Cc1ccc(Nc2cncc(F)c2C(=O)NC2CN(CC)C2)c(F)c1 [Compound 12, N-(1-ethylazetidin-3-yl)-3-((4-ethynyl-2-fluorophenyl)amino)-5-fluoroisonicotinamide] |
| > 1 | O=C(NC1CNC1)c1c(F)cncc1Nc1ccc(Br)cc1Cl [Compound 14, N-(azetidin-3-yl)-3-((4-bromo-2-chlorophenyl)amino)-5-fluoroisonicotinamide] |

tested on: P-glycoprotein (MDR1); experiment: MDCK-MDR1 permeability assay; assay type: in vitro ADME, canine; details: dog; MDCK-MDR1, Papp(B−A)/Papp(A−B)
Procedure: MDCK-MDR1 cells originated from transfection of Madin Darby canine kidney (MDCK) cells with the MDR1 gene, the gene encoding for the efflux protein, P-glycoprotein. This cell line is ideal for identifying substrates of P-gp, with or without an inhibitor. The cells were seeded on a Multiscreen™ plate to form a confluent monolayer over 4 days prior to the experiment. On day 4, the test compound (1-30 μM concentration) was added to the apical side of the membrane and the transport of the compound across the monolayer was monitored over a 120 minutes time period. To study drug efflux, it was also necessary to investigate transport of the compound from the basolateral compartment to the apical compartment and calculate an efflux ratio.
(§6) The permeability coefficient (Papp) was calculated from the following equation: […]
where dQ/dt is the rate of permeation of the drug across the cells, C0 is the donor compartment concentration at time zero and A is the area of the cell monolayer.
An efflux ratio was calculated from the mean apical to basolateral (A−B) Papp data and basolateral to apical (B−A) Papp data.
Efflux Ratio=Papp(B−A)/Papp(A−B)

| efflux ratio at 120 min | Structure (SMILES) |
| --- | --- |
| 3.42 | O=C(NC1CNC1)c1c(F)cncc1Nc1ccc(I)cc1F [Compound 5, N-(azetidin-3-yl)-3-fluoro-5-((2-fluoro-4-iodophenyl)amino)isonicotinamide] |
| 0.53 | CCN1CC(NC(=O)c2c(F)cncc2Nc2ccc(I)cc2F)C1 [Compound 6, N-(1-ethylazetidin-3-yl)-3-fluoro-5-((2-fluoro-4-iodophenyl)amino)isonicotinamide] |
| 4.08 | C#Cc1ccc(Nc2cncc(F)c2C(=O)NC2CNC2)c(F)c1 [Compound 11, N-(azetidin-3-yl)-3-((4-ethynyl-2-fluorophenyl)amino)-5-fluoroisonicotinamide] |

same assay, conditions: dog; MDCK-MDR1, apical to basolateral, 1-30 μM, 120 minutes

| Papp A→B at 120 min [×10⁻⁶ cm/s] | Structure (SMILES) |
| --- | --- |
| 10.5 | O=C(NC1CNC1)c1c(F)cncc1Nc1ccc(I)cc1F [Compound 5, N-(azetidin-3-yl)-3-fluoro-5-((2-fluoro-4-iodophenyl)amino)isonicotinamide] |
| 34.1 | CCN1CC(NC(=O)c2c(F)cncc2Nc2ccc(I)cc2F)C1 [Compound 6, N-(1-ethylazetidin-3-yl)-3-fluoro-5-((2-fluoro-4-iodophenyl)amino)isonicotinamide] |
| 14.6 | C#Cc1ccc(Nc2cncc(F)c2C(=O)NC2CNC2)c(F)c1 [Compound 11, N-(azetidin-3-yl)-3-((4-ethynyl-2-fluorophenyl)amino)-5-fluoroisonicotinamide] |

same assay, conditions: dog; MDCK-MDR1, basolateral to apical, 1-30 μM, 120 minutes

| Papp B→A at 120 min [×10⁻⁶ cm/s] | Structure (SMILES) |
| --- | --- |
| 36 | O=C(NC1CNC1)c1c(F)cncc1Nc1ccc(I)cc1F [Compound 5, N-(azetidin-3-yl)-3-fluoro-5-((2-fluoro-4-iodophenyl)amino)isonicotinamide] |
| 18 | CCN1CC(NC(=O)c2c(F)cncc2Nc2ccc(I)cc2F)C1 [Compound 6, N-(1-ethylazetidin-3-yl)-3-fluoro-5-((2-fluoro-4-iodophenyl)amino)isonicotinamide] |
| 59.5 | C#Cc1ccc(Nc2cncc(F)c2C(=O)NC2CNC2)c(F)c1 [Compound 11, N-(azetidin-3-yl)-3-((4-ethynyl-2-fluorophenyl)amino)-5-fluoroisonicotinamide] |

tested on: A375 melanoma cells; experiment: Antiproliferation assay in A375 cell line by CellTiter Glo; assay type: cell-based; details: Homo sapiens, A-375, 72 hours or 144 hours
Procedure: as §1, §2, §3, §4, §5

| GI50 [µM] | Structure (SMILES) |
| --- | --- |
| 0.1 to 1 | O=C(NC1CNC1)c1c(F)cc(F)cc1Nc1ccc(I)cc1F [Compound 1, N-(azetidin-3-yl)-2,4-difluoro-6-((2-fluoro-4-iodophenyl)amino)benzamide] |
| 0.1 to 1 | O=C(NC1CNC1)c1c(F)c(F)c(F)c(F)c1Nc1ccc(I)cc1F [Compound 4, N-(azetidin-3-yl)-2,3,4,5-tetrafluoro-6-((2-fluoro-4-iodophenyl)amino)benzamide] |
| < 0.1 | O=C(NC1CNC1)c1c(F)cncc1Nc1ccc(I)cc1F [Compound 5, N-(azetidin-3-yl)-3-fluoro-5-((2-fluoro-4-iodophenyl)amino)isonicotinamide] |
| < 0.1 | CCN1CC(NC(=O)c2c(F)cncc2Nc2ccc(I)cc2F)C1 [Compound 6, N-(1-ethylazetidin-3-yl)-3-fluoro-5-((2-fluoro-4-iodophenyl)amino)isonicotinamide] |
| < 0.1 | C#Cc1ccc(Nc2cncc(F)c2C(=O)NC2CNC2)c(F)c1 [Compound 11, N-(azetidin-3-yl)-3-((4-ethynyl-2-fluorophenyl)amino)-5-fluoroisonicotinamide] |
| 0.1 to 1 | C#Cc1ccc(Nc2cncc(F)c2C(=O)NC2CN(CC)C2)c(F)c1 [Compound 12, N-(1-ethylazetidin-3-yl)-3-((4-ethynyl-2-fluorophenyl)amino)-5-fluoroisonicotinamide] |
| 0.1 to 1 | O=C(NC1CNC1)c1c(F)cncc1Nc1ccc(Br)cc1Cl [Compound 14, N-(azetidin-3-yl)-3-((4-bromo-2-chlorophenyl)amino)-5-fluoroisonicotinamide] |

tested on: not listed separately; experiment: Caco-2 permeability assay; assay type: in vitro ADME; details: human, Caco-2
Procedure: Caco-2 cells are widely used as an in vitro assay to measure the permeability of a drug compound. The Caco-2 cell line is derived from a human colorectal carcinoma, and when cultured, the cells spontaneously differentiate into monolayers of polarized enterocytes. Caco-2 cells express P-glycoprotein and breast cancer resistance protein, two of the most relevant cell membrane active transporters that affect drug compound's permeability into cells and blood brain barrier.
The cells were seeded on Millipore Millicell plates and formed a confluent monolayer over 20 days prior to the experiment. On day 20, the test compound (1-30 uM concentration) was added to the apical side of the membrane and the transport of the compound across the monolayer was monitored over a 120 minutes time period. To study drug efflux, it was also necessary to investigate transport of the compound from the basolateral compartment to the apical compartment.
as §6
where dQ/dt is the rate of permeation of the drug across the cells, C0 is the donor compartment concentration at time zero and A is the area of the cell monolayer. C0 is obtained from analysis of the dosing solution at the start experiment.

| efflux ratio at 120 min | Structure (SMILES) |
| --- | --- |
| 0.47 | CCN1CC(NC(=O)c2c(F)cncc2Nc2ccc(I)cc2F)C1 [Compound 6, N-(1-ethylazetidin-3-yl)-3-fluoro-5-((2-fluoro-4-iodophenyl)amino)isonicotinamide] |
| 2.33 | C#Cc1ccc(Nc2cncc(F)c2C(=O)NC2CNC2)c(F)c1 [Compound 11, N-(azetidin-3-yl)-3-((4-ethynyl-2-fluorophenyl)amino)-5-fluoroisonicotinamide] |

same assay, conditions: human; Caco-2, apical to basolateral, 1-30 uM, 120 minutes

| Papp A→B at 120 min [×10⁻⁶ cm/s] | Structure (SMILES) |
| --- | --- |
| 89.3 | CCN1CC(NC(=O)c2c(F)cncc2Nc2ccc(I)cc2F)C1 [Compound 6, N-(1-ethylazetidin-3-yl)-3-fluoro-5-((2-fluoro-4-iodophenyl)amino)isonicotinamide] |
| 8.79 | C#Cc1ccc(Nc2cncc(F)c2C(=O)NC2CNC2)c(F)c1 [Compound 11, N-(azetidin-3-yl)-3-((4-ethynyl-2-fluorophenyl)amino)-5-fluoroisonicotinamide] |

same assay, conditions: human; Caco-2, basolateral to apical, 1-30 uM, 120 minutes

| Papp B→A at 120 min [×10⁻⁶ cm/s] | Structure (SMILES) |
| --- | --- |
| 42.3 | CCN1CC(NC(=O)c2c(F)cncc2Nc2ccc(I)cc2F)C1 [Compound 6, N-(1-ethylazetidin-3-yl)-3-fluoro-5-((2-fluoro-4-iodophenyl)amino)isonicotinamide] |
| 20.5 | C#Cc1ccc(Nc2cncc(F)c2C(=O)NC2CNC2)c(F)c1 [Compound 11, N-(azetidin-3-yl)-3-((4-ethynyl-2-fluorophenyl)amino)-5-fluoroisonicotinamide] |
